Data set [1] concerns human lung cancer cell lines (H460, H661, H1993, H441, CL1-5, A549, H520, H1688). The data set is described as follows: Flow cytometry surface binding of FITC-conjugated peptides to lung cancer cell lines. The data set is classed as cell-based. The conditions noted are these: 20 μg/mL FITC-conjugated peptide, 4° C., 1 hour; large cell, adeno-, squamous cell and small cell carcinoma lines. The protocol:
(§1) The lung cancer cell lines or control cells were collected using enzyme-free cell dissociation buffer, and then were incubated with 20 μg/mL FITC-conjugated HSP1, 2, 4 or control peptide at 4° C. for 1 hour. After washing, cells were analyzed by flow cytometer.
(In flow cytometry, cells or beads pass a laser one at a time.)

For data set [2], the system named is human normal bronchial epithelial cell (NL20). Put plainly: Flow cytometry surface binding of FITC-conjugated peptides to normal cells. The data set is classed as cell-based. To be noted: 20 μg/mL FITC-conjugated peptide, 4° C., 1 hour. The protocol:
as §1

For data set [3], the system named is H1993 adenocarcinoma cells. Put plainly: Immunofluorescence staining (IFA) of FITC-labeled peptides. Format: cell-based, human. The conditions noted are these: 10 μg/mL FITC-labeled peptide, fixed H1993 cells. The method, then: (§2) H460 and H1993 cells were seeded and grown to about 50% confluence on cover slips. After the cells had been fixed with 2% paraformaldehyde, they were incubated with 10 μg/mL FITC-labeled HSP1, 2, 4 or control peptides. Then the slides were counterstained with 4′,6-diamidino-2-phenylindole (DAPI), mounted and examined under a Leica universal fluorescent microscope. The images were merged using the MetaMorph Image Analysis Software.

In data set [4] the test system is H460 large cell carcinoma cells. Described as above. The data set is classed as cell-based, human. To be noted: 10 μg/mL FITC-labeled peptide, fixed H460 cells. The method, then:
as §2

For data set [5], the system named is H1993 cells. The data set is described as follows: Uptake of targeting peptide-conjugated LSRB. The data set is classed as cell-based, human. The conditions noted are these: peptide-conjugated liposomal SRB, time course, 37° C. The method, then:
(§3) H460 and H1993 cells were grown on a 24-well plate to 90% confluency, and 20, 10, 5, 2.5, 1.25, 0.625 μM HSP1, 2, 4-liposomal sulforhodamine B (LSRB) or LSRB in complete culture medium was added. The cells were incubated at 37° C., at the following time periods: 10, 30 min, 1, 2, 4, 8, 16 and 24 hours. At the indicated time point, cells were washed with PBS, and non-internalized LSRB on the cell surface was removed by adding 0.1 M Glycine, pH 2.8 for 10 min. Cells were then lysed with 200 μl 1% Triton X-100. Uptake of LD at low concentration in H1993 cells was performed using same protocol. For extraction of SRB or doxorubicin, 300 μl IPA (0.75 N HCl in isopropanol) was added to the lysate and shaken for 30 min. After the lysate was centrifuged at 12,000 rpm for 5 min, the amount of uptakes were determined by measuring Excitation/Emission wavelengths of fluorescence at 520/570 nm for SRB and 485/590 nm for doxorubicin using, a spectrofluorometer (SPECTRAMAX® M5, Molecular Devices). The concentration of SRB and doxambicin were calculated by interpolation using a standard curve.

For data set [6], the system named is H460 cells. The data set is described as follows: Uptake of targeting peptide-conjugated LSRB. Format: cell-based, human. The conditions noted are these: for uptake of LSRB: peptide-conjugated LSRB at high concentration / higher doses; for liposome internalization compared to non-targeting LSRB: peptide-conjugated liposomal SRB, time course, 37° C. The protocol: as §3

Data set [7] deals with H460 cells. The data set is described as follows: Endocytosis assay (confocal microscopy). To be noted: peptide-conjugated LSRB; 4° C. vs 37° C. The data set is classed as cell-based, human. The method, then: H460 cells were incubated with HSP1, HSP2, HSP4-LSRB or LSRB for 10 min at 4° C. and 37° C. After being washed with PBS, the cells were fixed by 4% paraformaldehyde, blocked by 1% BSA, and then stained with WGA-ALEXA FLUOR® […] and DAPI for cell membrane and nucleus. All fluorescence images were obtained by confocal microscopy.

Data set [8] concerns H460 cells. Put plainly: In vitro cytotoxicity assay of targeting peptide-conjugated LD (MTT). To be noted: for decrease of the half maximal inhibitory concentration (IC50) compared to LD: peptide-conjugated LD at optimal peptide ratio, H460 cells; for reduction in IC50 in vitro: peptide-mediated DDS, summary statement. The data set is classed as cell-based, human. The method, then:
H460 cells were seeded in 96-well plates (5000 cells/well) in complete culture media and were incubated overnight. Next day, cells were treated with varying concentration (0˜100 μM) of HSP1-LD, HSP2-LD, HSP4-LD or LD at 37° C. for 24 hours; After removal of the excess drug, the cells were washed once with PBS and continued to incubate with fresh culture medium for 48 h at 37° C. The cell viability was measured by adding 50 μl of MTT (Thiazolyl Blue Tetrazolium Bromide; Sigma-Aldrich) to each well of the plate. After 3.5 hours MTT incubation, 150 μl of Dimethyl sulfoxide (DMSO; Mallinckrodt Baker) was added to each well for 10 min, and the absorbance was determined with microplate reader (SPECTRAMAX® M5, Molecular Devices) at 540 nm.

Data set [9] concerns H460 human lung large cell carcinoma xenografts. The data set is described as follows: Ligand-targeted therapy, lung large cell carcinoma xenograft model. The data set is classed as in vivo, SCID mice. To be noted: large tumor ~500 mm^3; 2 mg/kg/injection i.v. twice a week. The method, then:
Female SCID mice 4-6 weeks of age were injected subcutaneously in the dorsolateral flank with human NSCLC cells. Mice with size-matched tumors (approximately 75 mm^3 for small tumor; 300 or 500 mm^3 for large tumor) were then randomly assigned to different treatment groups, and were injected intravenously with liposomal doxorubicin (LD), liposomal vinorelbine (LV), targeting peptide (HSP1, HSP2 or HSP4)-conjugated LD or LV, free doxorubicin (FD), free vinorelbine (FV) or equivalent volumes of saline. The dosages of drugs and administration time courses were described in figure legends depend on different experiment design. Mouse body weights and tumor sizes were measured twice a week. Tumor volumes were calculated according to this formula: length×(width)^2×0.52. Animal care was carried out in accordance with guidelines of Academia Sinica, Taipei, Taiwan. The protocol was approved by the Committee on the Ethics of Animal Experiments of Academia Sinica.

In data set [10] the test system is A549 adenocarcinoma orthotopic model. Put plainly: Combination therapy in orthotopic lung cancer model. To be noted: HSP4-mediated combinatorial liposomes. Format: in vivo, SCID mice.
Procedure: SCID mice (6-week-old) were anesthetized with isofloruance mixed with oxygen and placed in the right decubitus position. The skin overlying the left chest wall in the mid-axillary line was prepared with alcohol, and the underlying, chest wall and intercostal spaces were visualized. […] After tumor injection, the mice were turned to left decubitus position and observed for 45 to 60 min until fully recovered.
Luciferase-expressing cancer cells were imaged and quantified using IVIS200 system (Xenogen Corporation, Alameda, Calif.) at 10 minutes after i.p. injection of LUCWERIN™ (Caliper Life Sciences) before drug administration each time.
Data set [11] in a line: Pharmacokinetic and biodistribution study in mice bearing H460 xenografts. The data set is classed as in vivo, SCID mice. The conditions noted are these: single i.v. dose 2 mg/kg. The protocol:
SCID mice bearing H460 lung cancer xenografts (˜300 mm^3) were injected in the tail vein with either free drug doxorubicin (FD), liposomal doxorubicin (LD), or targeting (HSP1, HSP2 or HSP4) LD at a single dose of 2 mg/kg. At 1 hr and 24 hr post-injection, blood samples were collected through submaxillary punctures before mice were anaesthetized and sacrificed (three mice in each group). Then the mice were perfused with 50 ml PBS through heart, xenograft tumors and organs (brain, lung, heart, liver, and kidney) were dissected, weighted, and homogenized to calculate amount of doxorubicin in tissues. Total doxorubicin was quantified by measuring fluorescence at λEx/Em=485/590 nm using a spectrofluorometer (SPECTRAMAX® M5, Molecular Devices).

The values below come from patent US9387257B2, “Lung cancer specific peptides for targeted drug delivery and molecular imaging” (Academia Sinica, priority 2014, dated 2016).

Where no end group is shown, it is not given here.

For GAMHLPWHMGTL (also: FITC label) [HSP1], the “surface binding of FITC-labeled peptide (FACS)” value is given as “prominent binding” in data set [1] and “not to human normal bronchial epithelial cell” in [2]. Further, the “binding of FITC-labeled peptide in cell IFA” value (from here on “binding … in cell IFA”) in data set [3] and in [4] was “can bind to a major group” throughout. Moreover, the “liposome internalization compared to non-targeting LSRB” value in data set [5] and in [6] was “enhanced liposome internalization” each time. In addition, in data set [6], the “uptake of LSRB” value is reported as “better uptake ability”. Further, in [7], the “binding versus internalization compared to HSP2 and HSP4” value was “stronger ability at binding than internalization”. Also, the “decrease of the half maximal inhibitory concentration (IC50) compared to LD” value in data set [8] is reported as 12.5 fold. Further, in data set [8], the “reduction in IC50 in vitro” value is recorded as “about 10 fold”. In data set [9], the “therapeutic efficacy of LD” value is given as “significantly improved therapeutic efficacy”.

With NNPWREMMYIEI [HSP4, NNPWREMMYIEI], in [10], the “adverse effect (body weight loss)” value was “decreasing body weight loss”.

Regarding “KATEEQLKTVME (control peptide) [reference compound]”, the “binding … in cell IFA” value in [3] and in data set [4] was “cannot” throughout.

Take `COc1cccc2c1C(=O)c1c(O)c3c(c(O)c1C2=O)C[C@@](O)(C(=O)CO)C[C@@H]3O[C@H]1C[C@H](N)[C@H](O)[C@H](C)O1` [FD, doxorubicin]: the “half-life in plasma compared to liposomal formulations” value in data set [11] is listed as “much shorter half-life in plasma”.

For NPWEEQGYRYSM (also: FITC label) [HSP2], the “surface binding of FITC-labeled peptide (FACS)” value is given as “prominent binding” in data set [1] and “not to human normal bronchial epithelial cell” in data set [2]. The “binding … in cell IFA” value in data set [3] and in data set [4] was “can bind to a major group” throughout. Besides, the “liposome internalization compared to non-targeting LSRB” value in data set [5] and in data set [6] was “enhanced liposome internalization” in each case. In addition, in data set [6], the “uptake of LSRB” value is given as “no difference from non-targeting LSRB”. Besides, the “intracellular delivery of LSRB” value in [6] (peptide-conjugated LSRB at low LSRB concentrations) was “prominent intracellular delivery”. For the same compound, the “decrease of the half maximal inhibitory concentration (IC50) compared to LD” value in [8] is reported as 13 fold. Also, the “reduction in IC50 in vitro” value in data set [8] was “about 10 fold”. Besides, in data set [9], the “therapeutic efficacy of LD” value is recorded as “significantly improved therapeutic efficacy”.
